Key:
[1] = target: hCA II (Homo sapiens, UniProt P00918); assay: stopped-flow CO2 hydrase assay, hCA II; assay type: biochemical
[2] = target: hCA XII (Homo sapiens, UniProt O43570); assay: stopped-flow CO2 hydrase assay, hCA XII; assay type: biochemical
[3] = target: hCA I (Homo sapiens, UniProt P00915); assay: stopped-flow CO2 hydrase assay, hCA I; assay type: biochemical
[4] = target: hCA IX (Homo sapiens, UniProt Q16790); assay: biochemical

hCA XII, sequence (O43570 25-354): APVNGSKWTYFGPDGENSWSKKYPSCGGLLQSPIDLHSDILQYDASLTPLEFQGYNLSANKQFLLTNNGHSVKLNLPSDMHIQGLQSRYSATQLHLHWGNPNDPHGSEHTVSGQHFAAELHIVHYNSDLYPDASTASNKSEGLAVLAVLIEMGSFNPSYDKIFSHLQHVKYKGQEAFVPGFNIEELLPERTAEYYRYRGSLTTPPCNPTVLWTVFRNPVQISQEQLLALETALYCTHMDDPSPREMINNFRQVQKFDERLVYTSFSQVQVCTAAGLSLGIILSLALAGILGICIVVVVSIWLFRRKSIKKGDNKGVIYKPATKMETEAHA
hCA I, sequence (P00915 whole entry): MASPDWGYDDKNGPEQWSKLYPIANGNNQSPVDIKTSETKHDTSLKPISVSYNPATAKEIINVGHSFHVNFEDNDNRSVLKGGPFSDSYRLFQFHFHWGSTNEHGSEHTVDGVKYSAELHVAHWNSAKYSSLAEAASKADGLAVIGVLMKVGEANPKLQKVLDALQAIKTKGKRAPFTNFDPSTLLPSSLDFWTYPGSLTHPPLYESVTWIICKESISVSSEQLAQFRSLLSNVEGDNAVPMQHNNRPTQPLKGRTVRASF

Structure (SMILES) | Ki [1] | Ki [2] | Ki [3] | Ki [4]
O=C(c1cc2ccccc2oc1=O)N1CCN(C(=S)Nc2ccccc2Cl)CC1 [7a, N-(2-chlorophenyl)-4–(2-oxo-2H-chromene-3-carbonyl)piperazine-1-carbothioamide] | > 100 µM | 47.8 µM | > 100 µM | 72 µM
O=C(c1cc2ccc(O)cc2oc1=O)N1CCN(S(=O)(=O)c2ccccc2)CC1 [12b, 7-Hydroxy-3–(4-(phenylsulfonyl)piperazine-1-carbonyl)-2H-chromen-2-one] | > 100 µM | 9.3 µM | > 100 µM | > 100 µM
O=C(c1cc2ccccc2oc1=O)N1CCN(S(=O)(=O)c2ccc([N+](=O)[O-])cc2)CC1 [6a, 3–(4-((4-Nitrophenyl)sulphonyl)piperazine-1-carbonyl)-2H-chromen-2-one] | > 100 µM | 9.1 µM | > 100 µM | 7.1 µM
O=C(c1cc2ccccc2oc1=O)N1CCN(C(=S)Nc2ccccc2)CC1 [7c, 4–(2-Oxo-2H-chromene-3-carbonyl)-N-phenylpiperazine-1-carbothioamide] | > 100 µM | 31.8 µM | > 100 µM | –
O=C(c1cc2ccc(O)cc2oc1=O)N1CCN(S(=O)(=O)c2ccc(F)cc2)CC1 [12a, 3–(4-((4-Fluorophenyl)sulphonyl)piperazine-1-carbonyl)-7-hydroxy-2H-chromen-2-one] | > 100 µM | 86.6 µM | > 100 µM | > 100 µM
O=C(c1cc2ccccc2oc1=O)N1CCN(S(=O)(=O)c2ccc(Br)s2)CC1 [6d, 3–(4-((5-Bromothiophen-2-yl)sulphonyl)piperazine-1-carbonyl)-2H-chromen-2-one] | > 100 µM | 9.8 µM | > 100 µM | 5.56 µM
O=C(c1cc2ccc(O)cc2oc1=O)N1CCN(S(=O)(=O)c2ccc(Br)s2)CC1 [12c, 3–(4-((5-Bromothiophen-2-yl)sulphonyl)piperazine-1-carbonyl)-7-hydroxy-2H-chromen-2-one] | > 100 µM | > 100 µM | > 100 µM | 50.7 µM
O=C(c1cc2ccccc2oc1=O)N1CCN(S(=O)(=O)c2cccs2)CC1 [6c, 3–(4-(Thiophen-2-ylsulfonyl)piperazine-1-carbonyl)-2H-chromen-2-one] | > 100 µM | 66.7 µM | > 100 µM | –
CCS(=O)(=O)N1CCN(C(=O)c2cc3ccccc3oc2=O)CC1 [6e, 3–(4-(Ethylsulfonyl)piperazine-1-carbonyl)-2H-chromen-2-one] | > 100 µM | 26.1 µM | > 100 µM | 37.8 µM
O=C(c1cc2ccccc2oc1=O)N1CCN(C(=S)Nc2ccc(Cl)cc2)CC1 [7b, N-(4-chlorophenyl)-4–(2-oxo-2H-chromene-3-carbonyl)piperazine-1-carbothioamide] | > 100 µM | 8 µM | > 100 µM | 9.2 µM

The remaining lines, values ahead:

Ki [1] | Ki [2] | Ki [3] | Ki [4] | Structure (SMILES)
> 100 µM | 9.5 µM | > 100 µM | 90.9 µM | O=C(c1c(O)c2ccccc2oc1=O)N1CCN(S(=O)(=O)c2ccccc2)CC1 [16b, 4-Hydroxy-3–(4-(phenylsulfonyl)piperazine-1-carbonyl)-2H-chromen-2-one]
> 100 µM | – | > 100 µM | 62.1 µM | C/C(=N\OCc1ccc(F)cc1)c1cc2ccccc2oc1=O [20a, (E)-3–(1-(((4-fluorobenzyl)oxy)imino)ethyl)-2H-chromen-2-one]
> 100 µM | 9.4 µM | > 100 µM | 8.9 µM | C/C(=N\OCc1ccc(Cl)cc1)c1cc2ccccc2oc1=O [20b, (E)-3–(1-(((4-chlorobenzyl)oxy)imino)ethyl)-2H-chromen-2-one]
> 100 µM | 92.2 µM | > 100 µM | > 100 µM | O=C(c1c(O)c2ccccc2oc1=O)N1CCN(S(=O)(=O)c2ccc(F)cc2)CC1 [16a, 3–(4-((4-Fluorophenyl)sulphonyl)piperazine-1-carbonyl)-4-hydroxy-2H-chromen-2-one]
> 100 µM | 36.5 µM | > 100 µM | > 100 µM | O=C(c1c(O)c2ccccc2oc1=O)N1CCN(S(=O)(=O)c2ccc(Br)s2)CC1 [16c, 3–(4-((5-Bromothiophen-2-yl)sulphonyl)piperazine-1-carbonyl)-4-hydroxy-2H-chromene-2-one]
